# Entries after “also recorded” stand apart in the source; their conditions may differ.
# Assays:
# [1] = test system: EDL muscles; experiment: regeneration of skeletal muscle after deinnervation followed by crushing; type: in vivo, Wistar rats; details: for Ratio regenerated/ contralateral intact (muscle weight): 10 μg injected after deinnervation and crushing; for % ratio treated/ ratio degenerated: 10 μg injected, PBS-treated muscle = 100
# Method: The protocol is exactly the same as that described in Example 4 but the crushing of the muscle is preceded by section of the motor nerve at the entrance of the muscle.
# The substances are in saline phosphate buffer solution (PBS).
# Injection takes place after deinnervation and crushing , using a 50 μl microsyringe equipped with a flexible needle 60 mm in length and 0.4 mm in diameter. Two injections are carried out at an interval of 2 min. The volume injected is therefore 100 μl. The sucrase […] was supplied free of charge by D. Bar Shalom Bulk Medic, Denmark.
# After sacrifice of the animal, the EDL muscles of the treated paw and the contralateral paw are weighed. Since individual variations in the weight of normal muscles in animals of the same age can reach 20%, the results were standardized by calculating the ratio of the treated muscle to its contralateral intact control.
# This ratio was considered to be 100% for the muscles treated by PBS alone. The degree of regeneration of muscles treated by the different substances was calculated in % of the muscle injected by PBS.
# [2] = biological target: T1, beta TGF (Homo sapiens, UniProt P01137); experiment: protection of beta TGF against degradation by trypsin, beta TGF activity read on CCL64 cells; type: cell-based; details: for % inhibiting activity of the incorporation of tritiated thymidine in CCL64 cells: 37° C. 10 min, dilution 50 times
# T1 construct: from tissue; host or cells: human blood platelets
# Method: In order to measure the capacity of certain CMDBSs to interact with members of the beta TGF family and, by means of this interaction, to protect the beta TGFs, a grading test was devised.
# The beta 1 TFG is prepared from human blood platelets according to a protocol described in numerous publications (for example Growth factors and their receptors, 1992, vol 1 pp 419-472, written by A. Roberts and M. Sporn, edited by A. Roberts and M. Sporn, and published by Springer Verlag Berlin) and are commonly used by persons of ordinary skill in the art. The beta TGF biological activity test used in this example is that of the inhibition of CCL64 cells (from the American Tissue Culture Collection). This inhibition is measured by the ability of the beta TGF to inhibit the incorporation of tritiated thymidine in a dose dependent manner in these CCL64 cells stimulated by the FGF or by fetal calf serum according to the protocol described by Van Zolen in Progress in Growth Factor Research, 1990, 2, pp 131 to 152.
# Two doses of beta TGF are used, one corresponding to the 50% inhibition capacity of the incorporation of tritiated thymidine (defined as the inhibiting activity unit) and the other corresponding to the 100% inhibition capacity.
# The final volume of the incubated solution is adjusted to 1 ml and incubation is carried out at 37° C. for a varying length of time (10 minutes in the example described (Table 1)).
# 20 μl samples of are taken from each of the incubation reactions and added to CCL64 cells cultivated in 24-well plates, each well containing milliliter of culture medium according to the aforementioned protocol described by E. Zohlen. In these conditions, the final concentration of beta TGF per well is 1 ng/ml.
# The incubation mixture contained 50 ng of beta TGF (in 0.1% bovine serum albumin) and trypsin (500 μg). Mesoglycan or sulodexide or dextran sulfate or dextran or sucrase are used at the dose of 5000 μg.
# The beta TGF biological activity is measured as described above after a dilution of 50 times and by using CCL64 cells.
# [3] = test system: complement system; experiment: anticomplement activity (CH50); details: measured according to Mauzac et al.
# [4] = test system: trypsin; experiment: trypsin enzymatic activity on substrate S.87
# Method: The enzymatic activity of trypsin was measured by spectrophotometric absorption of the transformation product of S 87 in versus of the incubation time.
# [5] = test system: coagulation; experiment: anticoagulant activity
# [6] = test system: FGF 2; experiment: potentialization of FGF 2 biological activity, tritiated thymidine incorporation in CCL39 cells; type: cell-based
# From the text: (§1) The cells used in this example are CCL39 cells from the American Tissue Culture Collection. The conditions concerning culture and the measurement test of FGF biological activity are the same as those described in the publication by Tardieu and coll. in the Journal of Cellular Physiology, 1992. The FGF growth factors used are the FGF 1 and FGF 2 recombinant forms.
# (§2) In these experiments, the FGF 1 or 2 is used at a dose corresponding to the effective dose (called ED50) in order to induce a stimulation of the biological activity of 50% of the dose inducing the maximum stimulation. The biological activity is measured by the ability to induce an increase of the incorporation of tritiated thymidine in the cells according to protocols extensively described in numerous publications such as the previously mentioned publication by Tardieu et coll. and also in French Patent 2 644 066. […] In addition to this ability to potentialize the biological activity of the FGFs, the HBGFPPs protect the FGFs against thermal degradations and the inactivation induced by the proteolytic action of trypsin (FIGS. 3 to 5). Similarly, these HBGFPPs protect FGF1 and 2 against an inactivation induced by the proteolytic activity of trypsin (5A and 5B).
# [7] = test system: FGF 1; experiment: potentialization of FGF 1 biological activity, tritiated thymidine incorporation in CCL39 cells; type: cell-based
# From the text: as §1, §2
# [8] = test system: EDL muscles
# Method: The experiment was conducted on seven Wistar rats aged two and a half months and weighing three hundred grams.
# After annesthesia by ether, the EDL muscles (muscles of hind rat paws) were removed from the forefoot and mechanically damaged by applying a constant pressure on the entire length of the muscle, using a Pean forceps. The pressure was maintained for fifteen seconds, the forceps being closed at the second notch. The homogeneity of the lesion on the whole of the muscle was controlled by following its infarction for 30 seconds. The muscle was then put back in position and the skin sutured by linen thread.
# The regeneration controls were injected with the same quantity of PBS alone. Depending on the experiments, injection took place before or after the lesion of the muscle. The 200 μl were injected in one minute and the product's diffusion was ensured by leaving the muscle for two minutes before putting it back in the forefoot.
# The treated muscles and the controls were collected after 8 days of regeneration and then immediately frozen at -150° C. in isopentane. Frozen transverse sections of 10 μm thickness were made in the median region of the muscle. The dried sections were colored by Gomori trichrome.
# The morphometric analysis of the number of fibers and of their diameter was performed on micrographic montages corresponding to a transverse half-section of muscle.
# [9] = biological target: leukocytic elastase; experiment: inhibition of leukocytic elastase activity; type: biochemical; details: 37° C., pH 8, elastase 8.3 nM, 0.10 mM MeO-Suc-Ala-Ala-Pro-Val-pNA
# Method: The purified leukocytic elastase was obtained by Elastin Products Co (Owenville, Mo., U.S.A.) and the plasmin from SIGMA.
# The enzymes under consideration are placed in solution in a 100 mM Tris-HCL buffer, pH 8 for the elastase and pH 7.4 for the plasmin, in the presence of 0.02% sodium azide and 0.01% Triton X100 for the plasmin. The substrate and enzyme concentrations are: 0.10 mM MeO-Suc-Ala-Ala-Pro-Val-pNA (paranitroanilide)for the elastase at 8.3 nM, and 0.20 mM dVal-Leu-dLys-pNA for the plasmin at 77 nM. The IC50 is determined for each of the conditions.
# Batch EM5 corresponds to a T10 dextran of […]. The intermediate products of synthesis are identified by the symbols given above with an index number specifying the number of each substitution reaction.
# [10] = test system: FGF1; experiment: protection of FGF1 against thermal degradation, activity on CCL39 cells; type: cell-based; details: 20 μg heparin, 10 μg mesoglycan or sulodexide; 20° C. and 37° C. for 1, 7, 15, 30 days
# Method: (§3) (a) and 37° C. (b) for 1, 7, 15, 30 days. The measurement of the biological activity presented in abscissa corresponds to the stimulation unit values (ED50) of the incorporation of tritiated thymidine in CCL39 cells.
# as §2
# [11] = test system: 125I-FGF2; experiment: protection of 125I-FGF2 against proteolytic degradation by trypsin, gel autoradiography; type: biochemical; details: 37° C., FIG. 5B
# Method: (§4) Proteolytic digestion was carried out at 37° C. and the samples were separated by 18% polyacrylamide gel electrophoresis. The gels are dried and autoradiographed. The first track contains the ^125 I-FGF1 on its own.
# The arrangement of the tracks is identical to that presented for the ^125 I-FGF1 in FIG. 5A.
# [12] = test system: FGF2; experiment: protection of FGF2 against thermal degradation, activity on CCL39 cells; type: cell-based; details: 20 μg heparin, 10 μg mesoglycan or sulodexide; 20° C. and 37° C. for 1, 7, 15, 30 days
# Method: as §3, §2
# [13] = biological target: leukocytic elastase; details: cited from earlier work
# [14] = test system: 125I-FGF1; experiment: protection of 125I-FGF1 against proteolytic degradation by trypsin, gel autoradiography; type: biochemical; details: 37° C., FIG. 5A
# Method: as §4
# [15] = test system: FGF; experiment: semi-quantitative evaluation of FGF protection against trypsin, densitometry of radio-labelled FGF; type: biochemical; details: FGF + trypsin + polymer; radio-labelled FGF found compared to quantity deposited
# Method: As described above, a constant quantity of radioactive FGF is incubated under various conditions. After autoradiography of the reaction products, the non degraded quantity of radioactive FGF is quantified by densitometry. The values correspond to the percentage of radio-labelled FGF found, compared to the quantity deposited at the start of reaction (Table 5).
# [16] = single injection of 200 μl of 50 μ/ml, after 8 days of regeneration
# [17] = beta TGF 50 ng + polymer 5000 μg + trypsin 500 μg
# [18] = beta TGF 50 ng + polymer 5000 μg, no trypsin
# [19] = 10 μg/ml mesoglycan or 20 μg/ml heparin, CCL39 cells
# T1 sequence (P01137 279-390 limits assumed): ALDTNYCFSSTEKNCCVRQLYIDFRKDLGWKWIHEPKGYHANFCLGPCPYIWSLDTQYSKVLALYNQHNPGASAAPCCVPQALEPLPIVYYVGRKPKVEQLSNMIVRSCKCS
molecule,measurement,setting,value
"O=S(=O)(O)OC[C@H]1O[C@@](COS(=O)(=O)O)(O[C@H]2O[C@H](COS(=O)(=O)O)[C@@H](OS(=O)(=O)O)[C@H](OS(=O)(=O)O)[C@H]2OS(=O)(=O)O)[C@@H](OS(=O)(=O)O)[C@@H]1OS(=O)(=O)O [sucrase, sucrose octasulfate]",Ratio regenerated/ contralateral intact (muscle weight),[1],0.620
same,% ratio treated/ ratio degenerated,[1],87%
same,protection of the beta TGF against proteolysis induced by trypsin (in words),[2],"neither sucrase, nor heparin nor dextran sulfate protect the beta TGF"
carboxymethyl dextran benzylamide sulfonate [CMDBS],"anticomplement activity, CH50",[3],1.1 µg
same,inhibiting power on the activity of trypsin (in words),[4],no inhibiting power
same,trypsin activity,[4]; Trypsin 10 ug/ml + S87 + 5 ug/ml CMDBS,100
same,trypsin activity,[4]; Trypsin 10 ug/ml + S87 + 50 ug/ml CMDBS,100
same,trypsin activity,[4]; Trypsin 10 ug/ml + S87 + 500 ug/ml CMDBS,100
same,anticoagulant activity,[5],4 IU/mg
FGF 2: FGF 2 recombinant form growth factor,ED50 of FGF 2,"[6]; FGF 2 alone, CCL39 cells",3 ng/mL
FGF 1: FGF 1 recombinant form growth factor,ED50 of FGF 1,"[7]; FGF 1 alone, CCL39 cells",5 ng/mL
dextran sulfate,Diameter of muscles,[8]; [16],3.9 ± 0.4 mm
same,Mean diameter of regenerated fibers,[8]; [16],28.2 ± 4.6
same,Number of fibers on a half-section,[8]; [16],418
same,"muscular regeneration after crushing, macroscopic and histological findings (in words)","[8]; single injection, 8 days of regeneration",no qualitative or quantitative modification of muscular regeneration; also recorded: neither heparin nor dextran sulfate present properties on muscular regeneration
same,protection of the beta TGF against proteolysis induced by trypsin (in words),[2],"neither sucrase, nor heparin nor dextran sulfate protect the beta TGF"
same,Protection of the beta TGF (beta TGF biological activity),[2]; [17],0%
same,Protection of the beta TGF (beta TGF biological activity),[2]; [18],100%
heparin,Leukocytic elastase IC50,[9],1800 ng/mL
same,ED50 of FGF 2 in the presence of the polymer,[6]; [19],0.2 ng/mL
same,potentialization of the biological activity of FGF2 (in words),"[6]; 20 μg of heparin, 10 μg of mesoglycan or 10 μg of sulodexide, FIG. 2B",potentialization of the biological activity
same,protective effect against thermal degradation of FGF1 (in words),[10],protective effect
same,Ratio regenerated/ contralateral intact (muscle weight),[1],0.590
same,% ratio treated/ ratio degenerated,[1],86%
same,muscular repair and regeneration (in words),"[1]; rat, in vivo",neither heparin nor dextran sulfate present properties on muscular regeneration
same,anticoagulant activity,[5],175 IU/mg
same,protective effect against proteolytic degradation of 125I-FGF2 (in words),[11],protective effect
same,protective effect against thermal degradation of FGF2 (in words),[12],protective effect
same,Ki,[13],~1 nM
same,protective effect against proteolytic degradation of 125I-FGF1 (in words),[14],protective effect
same,PROTECTION (in %) of the FGF,[15],100%
same,ED50 of FGF 1 in the presence of the polymer,[7]; [19],0.4 ng/mL
same,potentialization of the biological activity of FGF1 (in words),"[7]; 20 μg of heparin, 10 μg of mesoglycan or 10 μg of sulodexide, FIG. 2A",potentialization of the biological activity
same,protection of the beta TGF against proteolysis induced by trypsin (in words),[2],"neither sucrase, nor heparin nor dextran sulfate protect the beta TGF"
same,biological activity of the beta TGF still present,[2]; after 10 min of incubation at 37° C. with trypsin,less than 20%
same,% inhibiting activity of the incorporation of tritiated thymidine in CCL64 cells,[2]; [17],10%
same,% inhibiting activity of the incorporation of tritiated thymidine in CCL64 cells,[2]; [18],100%
same,% inhibiting activity of the incorporation of tritiated thymidine in CCL64 cells,"[2]; polymer 5000 μg alone, no beta TGF, no trypsin",0%
dextran,Protection of the beta TGF (beta TGF biological activity),[2]; [17],0%
same,Protection of the beta TGF (beta TGF biological activity),[2]; [18],100%
"STBI: trypsin inhibitor originating from soya, from Sigma (protein, UniProt P01070 25-205, looked up) Trypsin inhibitor A: DFVLDNEGNPLENGGTYYILSDITAFGGIRAAPTGNERCPLTVVQSRNELDKGIGTIISSPYRIRFIAEGHPLSLKFDSFAVIMLCVGIPTEWSVVEDLPEGPAVKIGENKDAMDGWFRLERVSDDEFNNYKLVFCPQQAEDDKCGDIGISIDHDDGTRRLVVSKNKPLVVQFQKLDKESL",trypsin activity,[4]; Trypsin + S87 + STBI,0
